# Key:
# [1] = Clinical Phase Ia study: drug serum levels after single oral dose of 8-prenylnaringenin; type: in vivo, human (postmenopausal women)
# Excerpt: The pharmacokinetic profile of 8-prenylnaringenin is characterized by a complete oral absorption, a low degree of metabolization (less than 60% of dose) and a high pre-systemic elimination (first-liver-pass excretion; about 55% of dose). This high and unexpected pre-systemic elimination leads to an accumulation of substantial amounts in the bile fluid from which they are secreted into the duodenum when gastric signaling occurs with food intake. The 8-prenylnaringenin is then absorbed again and enters systemic circulation. Data were taken from the clinical Phase Ia study and represent two volunteers in the lowest dose group (50 mg 8-prenylnaringenin).
# Taking the total area under the curve as a measure of 8-prenylnaringenin systemic availability, the percentage of the area under the second peak (generated by reabsorption of the pre-systemically eliminated and then biliary secreted amounts) can be used to estimate those portions of the doses that undergo pre-systemic elimination after oral dosing. The average figure was 54±20% for the six women in the study.
# Re-increases in drug serum levels show reabsorption of dose parts collected in the bile fluid and subsequently secreted triggered by intake of the midday meal.
# 8-prenylnaringenin is analyzed by a specifically developed radio-immunoassay. A 4′-O hapten ({4-[5,7-Dihydroxy-8-(3-methyl-but-2-enyl)-4-oxo-chroman-2-yl]-phenoxy}-acetic acid) was synthesized starting from racemic naringenin and coupled to cationized bovine serum albumin (cBSA). This antigen was mixed with Freund's adjuvants and injected into rabbits. The antiserum resulting after several boosters was isolated as an IgG fraction and used in a final dilution of 1:100.000. A tritiated tracer was synthesized by preparation of the 3′,5′-dibromo derivative of 8-prenylnaringenin, again starting from racemic naringenin. Both bromine atoms were exchanged to ^3H in a final, palladium-catalyzed step leading to the tritiated tracer of a specific radioactivity of 2.22 GBq/mg.
# Biological matrices, i.e. blood plasma, blood serum, or urine, are either directly extracted with tert-butyl methyl ether (tert-BME) or after enzymatic de-conjugation by means of glucuronidase/arylsulfatase (Helix pomatia). Organic layers are separated, evaporated and the residues taken up in assay buffer. Extract residues or dilutions of standard 8-prenylnaringenin solutions are then mixed with antiserum and tracer and kept at 4° C. overnight. Dextran-coated charcoal is added to separate bound and free 8-prenylnaringenin and bound radioactivity is quantified with a liquid scintillation counter after addition of a scintillation cocktail.
# [2] = pH-dependent solubility of 8-prenylnaringenin; type: physicochemical; details: dependence on pH
# Excerpt: The solid oral modified release formulations of this invention show a pH-independent drug release in vitro. This is important as the pH varies considerably in the gastro-intestinal tract and continuous release should be achieved independent of the pH. However, the solubility of 8-prenylnaringenin is pH-dependent. […] The low acid solubility property of 8-prenylnaringenin results in vitro in slow drug dissolution at pH 1, whereas the dissolution is fast at higher pH-values such as pH 6.8. The resulting dissolution profiles are different at different pH-values. This problem is solved by the solid oral modified release formulation of this invention.
# [3] = In vitro release/dissolution from mini-matrix tablets, basket apparatus USP XXV; type: physicochemical
# Protocol: Measurement of the active ingredient release from mini-matrix tablets is carried out according to a one-compartment method (basket apparatus), as described in U.S. Pharmacopeia USP XXV. The release of 8-prenylnaringenin was examined in phosphate buffer solution, pH 6.8 (composition, see USP XXV) or in 0.1 N HCl. Ten percent (w/w) hydroxypropyl-β-cyclodextrine were added in order to achieve sink conditions and primarily control the drug release by the dosage form.
# uterus = details: compared with estradiol at equivalent bone protective doses; cited from earlier work
structure (smiles),measurement,setting,value
"CC(C)=CCc1c(O)cc(O)c2c1OC(c1ccc(O)cc1)CC2=O (centres unmarked) [8-prenylnaringenin, 5,7-Dihydroxy-2-(4-hydroxyphenyl)-8-(3-methylbut-2-enyl)-chroman-4-on]",percentage of the area under the second peak of total area under the curve (portion of dose undergoing pre-systemic elimination),"[1]; average for the six women in the study, after oral dosing",54±20%
same,degree of metabolization,"[1]; oral dosing, human",less than 60 % of dose
same,oral absorption,"[1]; oral dosing, human",complete
same,pre-systemic elimination (first-liver-pass excretion),"[1]; oral dosing, human",about 55 % of dose
same,solubility,[2],pH-dependent
same,drug dissolution in vitro,[3]; higher pH-values such as pH 6.8,fast
same,drug dissolution in vitro,[3]; pH 1,slow
same,activity on the uterus,uterus,much lower activity on the uterus than estradiol
